Molecules are shown by their SMILES. Entries after “also recorded” stand apart in the source; their conditions may differ.

By melting point is commonly meant the temperature of the solid-liquid transition.

The target in data set [1] is T1, CB1R (Rattus norvegicus, UniProt P20272).
T1 construct: from tissue; host or cells: rat cerebellum (membranes)
Nature of the data set: CB1R radioligand binding assay versus [3H]-SR141716A in rat cerebellar membranes. The following applies: for CB1R affinity (in words): radioligand not given; for Ki: radioligand [3H]-SR141716, mean ± standard error, three independent experiments in triplicate, read-out: K i (nM) CB1R versus [^3H]-SR141617. The text has this:
(§1) Radioligand Binding Assays. […] Competitive radioligand binding assays have been used to evaluate the affinity of selected synthetized triazoles to CB1R in rat cerebellar membranes.

Data set [2] addresses T1, CB1R. Nature of the data set: CB1R radioligand binding assay versus [3H]-WIN552122 in rat cerebellar membranes.
Text: as §1

The test system of data set [3] is obese animals. Details: method as in PMID 16750544, PMID 18426510, PMID 21951309. The following applies: cited from earlier work.

T1 sequence (P20272 whole entry): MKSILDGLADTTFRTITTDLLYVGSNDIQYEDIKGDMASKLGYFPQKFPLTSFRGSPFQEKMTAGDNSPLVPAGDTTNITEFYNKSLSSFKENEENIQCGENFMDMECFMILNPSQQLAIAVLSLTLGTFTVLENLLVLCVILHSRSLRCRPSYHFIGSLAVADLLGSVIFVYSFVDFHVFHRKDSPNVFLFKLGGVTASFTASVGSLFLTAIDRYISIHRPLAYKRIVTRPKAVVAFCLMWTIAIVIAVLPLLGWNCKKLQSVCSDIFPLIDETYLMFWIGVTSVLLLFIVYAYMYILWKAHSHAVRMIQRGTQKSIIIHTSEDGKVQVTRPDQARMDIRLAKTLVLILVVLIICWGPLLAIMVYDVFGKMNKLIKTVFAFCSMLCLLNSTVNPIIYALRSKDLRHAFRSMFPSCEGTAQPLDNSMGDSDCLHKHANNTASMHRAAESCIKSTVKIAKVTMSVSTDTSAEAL

For `CCCCCCCc1nc(-c2ccccc2)nn1Cc1ccccc1` [Compound 7a, 1-Benzyl-5-heptyl-3-phenyl-1H-1,2,4-triazole], the “CB1R affinity (in words)” value in data set [1] is recorded as “moderate CB1R affinity”.
For `CCCCCCCc1nc(-c2ccccc2)nn1Cc1ccc(Cl)cc1` [Compound 8a, 1-(4-Chlorobenzyl)-5-heptyl-3-phenyl-1H-1,2,4-triazole], in data set [1], the “CB1R affinity (in words)” value was “moderate CB1R affinity”.
In turn, `CCCCCCCc1nc(-c2ccccc2)n(Cc2ccc(Cl)cc2Cl)n1` [Compound 9b, 1-(2,4-Dichloro-benzyl)-3-heptyl-5-phenyl-1H-1,2,4-triazole] displayed a melting point of 70 to 73 °C.
Regarding `CCCCCCCc1nc(-c2ccc(Cl)cc2)nn1Cc1ccccc1` [Compound 10a, 1-Benzyl-3-(4-chlorophenyl)-5-heptyl-1H-1,2,4-triazole], the “CB1R affinity (in words)” value in data set [1] is listed as “moderate CB1R affinity”.
`CCCCCCCc1nc(-c2ccc(Cl)cc2)nn1Cc1ccc(Cl)cc1` [Compound 11a, 1-(4-Chlorobenzyl)-3-(4-chlorophenyl)-5-heptyl-1H-1,2,4-triazole]: the “CB1R affinity (in words)” value in data set [1] is reported as “moderate CB1R affinity”.
As for `CCCCCCCc1nc(-c2ccc(Cl)cc2)nn1Cc1ccc(Cl)cc1Cl` [Compound 12a, 3-(4-Chlorophenyl)-1-(2,4-dichlorobenzyl)-5-heptyl-1H-1,2,4-triazole], in data set [1], the Ki is recorded as 13.9 nM and the “CB1R affinity (in words)” value is listed as “CB1R affinity in the nanomolar range; also recorded: high affinity for CB1R”. For the same compound, the “K i (nM) CB1R versus [^3H]-WIN552122” value in data set [2] (radioligand [3H]-WIN552122, mean ± standard error, three independent experiments in triplicate) amounted to 323 nM.
The compound `CCCCCCCc1nc(-c2ccc(Cl)cc2)n(Cc2ccc(Cl)cc2Cl)n1` [Compound 12b, 5-(4-Chlorophenyl)-1-(2,4-dichlorobenzyl)-3-heptyl-1H-1,2,4-triazole] had a melting point of 97 to 99 °C.
The same measure, in the same setting: then `CCCCCCCc1nc(-c2ccncc2)n(Cc2ccc(Cl)cc2Cl)n1` [Compound 15b, 4-[1-(2,4-Dichlorobenzyl)-3-heptyl-1H-1,2,4-triazol-5-yl]pyridine], with 104 to 105 °C; and `CCCCCCCc1nc(-c2cc[n+](C)cc2)nn1Cc1ccc(Cl)cc1Cl.[I-]` [Compound 18, 4-[1-(2,4-Dichlorobenzyl)-5-heptyl-1H-1,2,4-triazol-3-yl]-1-methylpyridinium Iodide], with 136 to 138 °C.
As for `CCCCCCc1nc(-c2ccc(Cl)cc2)n(-c2ccc(Cl)cc2Cl)n1` [LH21, 5-(4-chlorophenyl)-1-(2,4-dichlorophenyl)-3-hexyl-1H-1,2,4-triazole, reference compound], the Ki came to 856 ± 296 nM in data set [1] and 748 ± 193 nM in data set [2] (read-out: K i (nM) CB1R versus [^3H]-WIN552122, radioligand [3H]-WIN552122, mean ± standard error, three independent experiments in triplicate). Moreover, the “antiobesity activity in in vivo assays” value in data set [3] is reported as “exhibited antiobesity activity”.

Values taken from article PMC4834188, “Benzyl-1,2,4-triazoles as CB1 Cannabinoid Receptor Ligands: Preparation and In Vitro Pharmacological Evaluation” (International Journal of Medicinal Chemistry, 2016).
